This is an account of results in US20170247326A1, “Substituted Pyrrolidine Carboxamide Compounds” (EPIZYME, INC., priority 2014, published 2017).

The structures appear in SMILES notation.

This assay has as its target T1, SMYD2 (Homo sapiens, UniProt Q9NRG4).
T1 construct: Full length SMYD2 (NP_064582.2) was cloned; His6 (N, cleaved yes); FLAG (N); made in house; host or cells: Sf9 insect cells
Briefly: SMYD2 biochemical assay (3H-SAM, biotinylated peptide substrate, Flashplate). The note with it: Table 3; average of n = 1 to n = 50; read-out: SMYD2 Biochem IC50. The text has this:
S-adenosylmethionine (SAM), S-adenosylhomocysteine (SAH), bicine, Tween20, dimethylsulfoxide (DMSO), bovine skin gelatin (BSG), and Tris(2-carboxyethyl)phosphine hydrochloride (TCEP) were purchased from Sigma-Aldrich at the highest level of purity possible. ^3H-SAM was purchase from American Radiolabeled Chemicals with a specific activity of 80 Ci/mmol. 384-well streptavidin Flashplates were purchased from PerkinElmer.
Peptide was synthesized with a N-terminal linker-affinity tag motif and a C-terminal amide cap by 21st Century Biochemicals. The peptide was high high-performance liquid chromatography (HPLC) purified to greater than 95% purity and confirmed by liquid chromatography mass spectrometry (LC-MS). The sequence was […](K-Biot)-amide. (SEQ ID NO: 3)
Full length SMYD2 (NP_064582.2) was cloned into a pFastbac-Htb-lic vector with an N-terminal His6 tag and FLAG tag, preceded by a TEV protease cleavage site. The protein was expressed in Sf9 insect cells. Cells were resuspended in lysis buffer (25 mM HEPES-NaOH, pH 7.5, 200 mM NaCl, 5% glycerol, and 5 mM […] and lysed by sonication. The protein was purified by Ni-NTA (Qiagen), followed by TEV cleavage to remove the His6 tag, subtractive Ni-NTA (Qiagen), and gel filtration chromatography using an S200 column (GE Healthcare). Purified protein was stored in 20 mM Tris-HCl, pH 8.0, 100 mM NaCl, and 1 mM TCEP.
General Procedure for SMYD2 Enzyme Assays on Peptide Substrates
The assays were all performed in a buffer consisting of 20 mM Bicine (pH=7.6), 1 mM TCEP, 0.005% Bovine Skin Gelatin, and 0.002% Tween20, prepared on the day of use. Compounds in 100% DMSO (1 ul) were spotted into a polypropylene 384-well V-bottom plates (Greiner) using a Platemate Plus outfitted with a 384-channel head (Thermo Scientific). DMSO (1 ul) was added to Columns 11, 12, 23, 24, rows A-H for the maximum signal control and 1 ul of SAH, a known product and inhibitor of SMYD2, was added to columns 11, 12, 23, 24, rows I-P for the minimum signal control. A cocktail (40 ul) containing the SMYD2 enzyme was added by Multidrop Combi (Thermo-Fisher). The compounds were allowed to incubate with SMYD2 for 30 min at room temperature, then a cocktail (10 ul) containing ^3H-SAM and peptide was added to initiate the reaction (final volume=51 ul). The final concentrations of the components were as follows: SMYD2 was 1.5 nM, ^3H-SAM was 10 nM, and peptide was 60 nM, SAH in the minimum signal control wells was 1000 uM, and the DMSO concentration was 2%. The assays were stopped by the addition of non-radioactive SAM (10 ul) to a final concentration of 600 uM, which dilutes the ^3H-SAM to a level where its incorporation into the peptide substrate is no longer detectable. 50 ul of the reaction in the 384-well polypropylene plate was then transferred to a 384-well Flashplate and the biotinylated peptides were allowed to bind to the streptavidin surface for at least 1 hour before being washed three times with 0.1% Tween20 in a Biotek ELx405 plate washer. The plates were then read in a PerkinElmer TopCount plate reader to measure the quantity of ^3H-labeled peptide bound to the Flashplate surface, measured as disintegrations per minute (dpm) or alternatively, referred to as counts per minute (cpm).
Where dpm=disintegrations per minute, cmpd=signal in assay well, and min and max are the respective minimum and maximum signal controls.
Where top and bottom are the normally allowed to float, but may be fixed at 100 or 0 respectively in a 3-parameter fit. The Hill Coefficient normally allowed to float but may also be fixed at 1 in a 3-parameter fit. I is the compound concentration.
SMYD2 biochemical assay data for representative Compounds of the Disclosure are presented in Tables 1, 3, and 4 in the column titled “SMYD2 Bicohem IC50 (μM).”

T1 sequence (Q9NRG4 whole entry): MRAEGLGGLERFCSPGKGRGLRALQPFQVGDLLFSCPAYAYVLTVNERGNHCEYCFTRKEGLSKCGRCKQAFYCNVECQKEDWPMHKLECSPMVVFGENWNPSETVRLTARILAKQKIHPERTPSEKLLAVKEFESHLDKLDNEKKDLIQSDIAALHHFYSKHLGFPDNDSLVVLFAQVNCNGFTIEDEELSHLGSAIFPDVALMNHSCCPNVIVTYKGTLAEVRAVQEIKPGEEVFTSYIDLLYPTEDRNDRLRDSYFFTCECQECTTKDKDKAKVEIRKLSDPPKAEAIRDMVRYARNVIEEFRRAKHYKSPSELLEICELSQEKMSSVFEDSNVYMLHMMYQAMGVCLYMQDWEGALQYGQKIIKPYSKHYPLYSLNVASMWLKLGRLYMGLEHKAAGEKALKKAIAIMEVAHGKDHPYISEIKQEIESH

In general, IC50 refers to the concentration that gives 50% inhibition. Take `CC(C)N1C[C@@H](C)[C@H](NC(=O)c2coc(C3CC3)n2)C1` (racemic) [compound 54, (±)-trans-2-cyclopropyl-N-[4-methyl-1-(propan-2-yl)pyrrolidin-3-yl]-1,3-oxazole-4-carboxamide]: the IC50 was greater than 50 µM. For `CC(C)N1C[C@@H](C)[C@H](NC(=O)CCN2CCCC2)C1` (racemic) [compound 55, (±)-trans-N-[4-methyl-1-(propan-2-yl)pyrrolidin-3-yl]-3-(pyrrolidin-1-yl)propanamide], the IC50 was greater than 50 µM. For `CC(C)N1C[C@H](C)[C@H](NC(=O)CCN2CCCC2)C1` (racemic) [compound 56, (±)-cis-N-[4-methyl-1-(propan-2-yl)pyrrolidin-3-yl]-3-(pyrrolidin-1-yl)propanamide], the half-inhibitory concentration (IC50) is greater than 50 µM.

Take `CC(C)N1C[C@@H](C)[C@H](NC(=O)c2ccc(C3CC3)c(=O)[nH]2)C1` (racemic) [compound 57, (±)-trans-5-cyclopropyl-N-[4-methyl-1-(propan-2-yl)pyrrolidin-3-yl]-6-oxo-1,6-dihydropyridine-2-carboxamide]: the IC50 is greater than 50 µM. `CC(=O)N[C@@H]1CN(C(C)C)C[C@H]1C` (racemic) [compound 58, (±)-trans-N-[4-methyl-1-(propan-2-yl)pyrrolidin-3-yl]acetamide]: the IC50 is greater than 50 µM.

For `CC(C)N1C[C@H](C)[C@H](NC(=O)c2ncc(C3CC3)cn2)C1` (racemic) [compound 59, (±)-cis-5-cyclopropyl-N-[4-methyl-1-(propan-2-yl)pyrrolidin-3-yl]pyrimidine-2-carboxamide], the half-inhibitory concentration (IC50) is greater than 50 µM. Take `CC(C)N1C[C@H](C)[C@H](NC(=O)c2nccc(C3CC3)n2)C1` (racemic) [compound 60, (±)-cis-4-cyclopropyl-N-[4-methyl-1-(propan-2-yl)pyrrolidin-3-yl]pyrimidine-2-carboxamide]: the IC50 was greater than 50 µM. `CC(C)N1C[C@H](C)[C@H](NC(=O)c2cc(C3CC3)[nH]n2)C1` (racemic) [compound 61, (±)-cis-5-cyclopropyl-N-[4-methyl-1-(propan-2-yl)pyrrolidin-3-yl]-1H-pyrazole-3-carboxamide]: the concentration for half-maximal inhibition (IC50) was greater than 50 µM. On to `CC(C)N1C[C@@H](C)[C@H](NC(=O)c2cc(C3CC3)[nH]n2)C1` (racemic) [compound 62, (±)-trans-5-cyclopropyl-N-[4-methyl-1-(propan-2-yl)pyrrolidin-3-yl]-1H-pyrazole-3-carboxamide], for which the IC50 was greater than 50 µM. Turning to `CC(C)N1C[C@H](C)[C@H](NC(=O)c2coc(C3CC3)n2)C1` (racemic) [compound 63, (±)-cis-2-cyclopropyl-N-[4-methyl-1-(propan-2-yl)pyrrolidin-3-yl]-1,3-oxazole-4-carboxamide], the IC50 was greater than 50 µM. Regarding `CC(C)N1C[C@H](C)[C@H](NC(=O)c2cnnc(C3CC3)c2)C1` (racemic) [compound 64, (±)-cis-6-cyclopropyl-N-[4-methyl-1-(propan-2-yl)pyrrolidin-3-yl]pyridazine-4-carboxamide], the IC50 is greater than 50 µM. Next, `CC(C)N1C[C@@H](C)[C@H](NC(=O)c2cnnc(C3CC3)c2)C1` (racemic) [compound 65, (±)-trans-6-cyclopropyl-N-[4-methyl-1-(propan-2-yl)pyrrolidin-3-yl]pyridazine-4-carboxamide]: greater than 50 µM.

On to `CC(C)N1C[C@@H](C)[C@H](NC(=O)c2ncc(C3CC3)cn2)C1` (racemic) [compound 66, (±)-trans-5-cyclopropyl-N-[4-methyl-1-(propan-2-yl)pyrrolidin-3-yl]pyrimidine-2-carboxamide], for which the IC50 is greater than 50 µM. For the compound `CC(C)N1C[C@@H](C)[C@H](NC(=O)c2nccc(C3CC3)n2)C1` (racemic) [compound 67, (±)-trans-4-cyclopropyl-N-[4-methyl-1-(propan-2-yl)pyrrolidin-3-yl]pyrimidine-2-carboxamide], the half-inhibitory concentration (IC50) is greater than 50 µM.

Take `CC(C)N1C[C@@H](C)[C@H](NC(=O)c2cc(C3CC3)ncn2)C1` (racemic) [compound 68, (±)-trans-6-cyclopropyl-N-[4-methyl-1-(propan-2-yl)pyrrolidin-3-yl]pyrimidine-4-carboxamide]: the IC50 is greater than 50 µM.

On to `CC(C)N1C[C@H](C)[C@H](NC(=O)c2ncc(C3CC3)s2)C1` (racemic) [compound 69, (±)-cis-5-cyclopropyl-N-[4-methyl-1-(propan-2-yl)pyrrolidin-3-yl]-1,3-thiazole-2-carboxamide], for which the concentration for half-maximal inhibition (IC50) worked out at 3.3 µM. Take `CC(C)N1C[C@@H](C)[C@H](NC(=O)c2cnc(C3CC3)o2)C1` (racemic) [compound 70, (±)-trans-2-cyclopropyl-N-[4-methyl-1-(propan-2-yl)pyrrolidin-3-yl]-1,3-oxazole-5-carboxamide]: the IC50 was greater than 50 µM. As to `CC(C)N1C[C@@H](C)[C@H](NC(=O)c2c[nH]c(C3CC3)n2)C1` (racemic) [compound 71, (±)-trans-2-cyclopropyl-N-[4-methyl-1-(propan-2-yl)pyrrolidin-3-yl]-1H-imidazole-4-carboxamide], the concentration for half-maximal inhibition (IC50) was greater than 50 µM. As to `CC(C)N1C[C@@H](C)[C@H](NC(=O)c2ncc(C3CC3)s2)C1` (racemic) [compound 72, (±)-trans-5-cyclopropyl-N-[4-methyl-1-(propan-2-yl)pyrrolidin-3-yl]-1,3-thiazole-2-carboxamide], the IC50 was greater than 50 µM. `CC(C)N1C[C@@H](C)[C@H](NC(=O)c2ncc(C3CC3)o2)C1` (racemic) [compound 73, (±)-trans-5-cyclopropyl-N-[4-methyl-1-(propan-2-yl)pyrrolidin-3-yl]-1,3-oxazole-2-carboxamide]: the IC50 is greater than 50 µM. Regarding `CC(C)N1C[C@@H](C)[C@H](NC(=O)c2ncc(C3CC3)[nH]2)C1` (racemic) [compound 74, (±)-trans-5-cyclopropyl-N-[4-methyl-1-(propan-2-yl)pyrrolidin-3-yl]-1H-imidazole-2-carboxamide], the IC50 stood at 24.3 µM. On to `CC(C)N1C[C@H](C)[C@H](NC(=O)c2cc3c(cn2)OC(F)(F)O3)C1` (racemic) [compound 75, (±)-cis-2,2-difluoro-N-[4-methyl-1-(propan-2-yl)pyrrolidin-3-yl]-2H-[1,3]dioxolo[4,5-c]pyridine-6-carboxamide], for which the IC50 was greater than 50 µM. Next, `CC(C)N1C[C@H](C)[C@H](NC(=O)c2ncc(C3CC3)o2)C1` (racemic) [compound 76, (±)-cis-5-cyclopropyl-N-[4-methyl-1-(propan-2-yl)pyrrolidin-3-yl]-1,3-oxazole-2-carboxamide]: 6.77 µM; `CC(C)N1C[C@H](C)[C@H](NC(=O)c2c[nH]c(C3CC3)n2)C1` (racemic) [compound 77, (±)-cis-2-cyclopropyl-N-[4-methyl-1-(propan-2-yl)pyrrolidin-3-yl]-1H-imidazole-4-carboxamide]: greater than 50 µM.

`CC(C)N1C[C@H](C)[C@H](NC(=O)c2cnc(C3CC3)o2)C1` (racemic) [compound 78, (±)-cis-2-cyclopropyl-N-[4-methyl-1-(propan-2-yl)pyrrolidin-3-yl]-1,3-oxazole-5-carboxamide]: the IC50 was greater than 50 µM.

Take `CC(C)N1C[C@H](C)[C@H](NC(=O)c2ncc(C3CC3)[nH]2)C1` (racemic) [compound 79, (±)-cis-5-cyclopropyl-N-[4-methyl-1-(propan-2-yl)pyrrolidin-3-yl]-1H-imidazole-2-carboxamide]: the half-inhibitory concentration (IC50) was 1.96 µM.
